Among the data in the NIST ThermoML archive (doi:10.1016/j.jct.2014.06.029) are mass density and refractive index values, retold here.

The structures appear in SMILES notation. ± gives the expanded uncertainty stated by the source.

As usually defined, the mass density is mass per unit of volume. A word on the refractive index: it is the speed of light in vacuum divided by its phase velocity in the sample.

For data set [1] the following is noted: 298 K; 101.33 kPa; Crystal; X-ray diffraction.
Data set [2] in a line: refractive index (Na D-line) (dimensionless); mn = molality of the nth substance listed, in mol/kg. The note with it: 293.15 K; 101 kPa; Liquid; Standard Abbe refractometry; m1 = 0.02.

`CC(=O)C(=O)[O-].[Na+]` [sodium pyruvate]: in data set [1], the mass density is listed as 1749 ± 9 kg/m3.

On to `CC(=O)C(=O)[O-].[Na+]` [sodium pyruvate] + O, for which the refractive index in data set [2] turned out to be 1.3308 ± 0.0007.
